The source of these data is patent US20140221354A1, “IMIDAZO [1,2-a]PYRIDINE COMPOUNDS FOR USE IN THERAPY” (EMBLEM Technology Transfer GmbH, priority 2011, published 2014).

The test system of this assay is CellSensor® HRE-bla HCT-116 stably transfected reporter cell line. Description: HIF/HRE reporter assay. Type of assay: cell-based. The conditions noted are these: Homo sapiens, inhibition of activated HIF signaling response, hypoxic conditions induced with deferoxamine (DFO), 24 h incubation, blue/green emission ratio, read-out: Evaluation. The procedure: Inhibition of an activated HIF signaling response under chemically-induced hypoxic conditions due to compound treatment was determined using the CellSensor® HRE-bla HCT-116 stably transfected reporter cell line from Invitrogen according to the manufacturer's instructions.
Cells were maintained as described previously and seeded into 384-well, clear-bottom plates (Corning 3712) at 15000 cells/well in 32 μl assay medium (Opti-MEM [Invitrogen], 0.5% FBS, 100 U/ml penicillin, 100 μg/ml streptomycin, 0.1 mM non-essential amino acids [NEAA], 1 mM sodium pyruvate, 5 mM HEPES [pH 7.3]). Following a 2 h incubation period, compounds (4 μl) were subsequently added to the cells at 10× concentrations in 5% DMSO and incubated under normal conditions for 30 min. To induce hypoxic conditions, 4 μl of a 2 mM deferoxamine (DFO) solution was added to the cells followed by 24 h incubation under standard assay conditions (as described). Control wells included wells containing only medium (no cells) and wells treated with 0.5% DMSO instead of compound.
Prior to the readout, the Substrate Loading Solution was prepared as described in the manufacturer's protocol and 10 μl added to each well. Following a further 2 h incubation period at room temperature and in the dark, fluorescence was measured at two wavelengths (blue channel: ex. 409 nm, em. 460 nm; green channel: ex. 409 nm, em. 530 nm) on a PerkinElmer Envision HTS. For the analysis, the average signal of the cell-free wells at 460 nm and 530 nm was first subtracted from the blue and green channel data, respectively. The blue/green emission ratios were then calculated for each well, dividing the background-corrected blue emission values by the background-corrected green emission values. […] values were determined from these ratios using GraphPad Prism (Prism 5, GraphPad software, Inc.).
In general terms: In a reporter assay the amount or activity of a reporter protein is the signal.

A value given as a limit tells only on which side of the number the result lay.

In the case of `Cc1ccccc1-c1ccc2nc(-c3ccc(C#N)cc3)c(CN3CCCNCC3)n2c1` [Example 25, 4-(3-((1,4-diazepan-1-yl)methyl)-6-(o-tolyl)imidazo[1,2-a]pyridin-2-yl)benzonitrile], the EC50 is under 500 nM.

Turning to `CN1CCN(Cc2c(-c3ccc([N+](=O)[O-])cc3)nc3ccc(-c4ccccc4)cn23)CC1` [Example 7, 3-((4-methylpiperazin-1-yl)methyl)-2-(4-nitrophenyl)-6-phenylimidazo[1,2-a]pyridine], the EC50 is under 500 nM.

In the case of `c1ccc(-c2ccc3nc(-c4cccnc4)c(CN4CCCNCC4)n3c2)cc1` [Example 15, 3-((1,4-diazepan-1-yl)methyl)-6-phenyl-2-(pyridin-3-yl)imidazo[1,2-a]pyridine], the EC50 is under 500 nM.

Turning to `O=[N+]([O-])c1ccc(-c2nc3ccc(-c4ccccc4)cn3c2CN2CCCNCC2)cc1` [Example 4, 3-((1,4-diazepan-1-yl)methyl)-2-(4-nitrophenyl)-6-phenylimidazo[1,2-a]pyridine], the EC50 is under 500 nM.

On to `N#Cc1csc(-c2nc3ccc(-c4ccccc4)cn3c2CN2CCCNCC2)c1` [Example 20, 5-(3-((1,4-diazepan-1-yl)methyl)-6-phenylimidazo[1,2-a]pyridin-2-yl)thiophene-3-carbonitrile], for which the EC50 is under 500 nM.

`Cc1cccc(-c2ccc3nc(-c4ccc(C#N)cc4)c(CN4CCCNCC4)n3c2)c1` [Example 24, 4-(3-((1,4-diazepan-1-yl)methyl)-6-(m-tolyl)imidazo[1,2-a]pyridin-2-yl)benzonitrile]: the EC50 was under 500 nM.

In the case of `N#Cc1ccc(-c2nc3ccc(-c4ccccc4)cn3c2CN2CCNC(=O)C2)cc1` [Example 33, 4-(3-((3-oxopiperazin-1-yl)methyl)-6-phenylimidazo[1,2-a]pyridin-2-yl)benzonitrile], the EC50 was over 1000 nM.

Take `COc1ccc(-c2nc3ccc(-c4ccccc4)cn3c2CN2CCCNCC2)cc1` [Example 18, 3-((1,4-diazepan-1-yl)methyl)-2-(4-methoxyphenyl)-6-phenylimidazo[1,2-a]pyridine]: the EC50 was under 500 nM.

Turning to `CC(=O)N1CCN(Cc2c(-c3ccc([N+](=O)[O-])cc3)nc3ccc(-c4ccccc4)cn23)CC1` [Example 3, 1-(4-((2-(4-nitrophenyl)-6-phenylimidazo[1,2-a]pyridin-3-yl)methyl)piperazin-1-yl)ethanone], the EC50 fell in the range of 500 to 1000 nM.

As to `N#Cc1ccc(-c2nc3ccc(-c4cn[nH]c4)cn3c2CN2CCCNCC2)cc1` [Example 37, 4-(3-((1,4-diazepan-1-yl)methyl)-6-(1H-pyrazol-4-yl)imidazo[1,2-a]pyridin-2-yl)benzonitrile], the EC50 is over 1000 nM.

With `N#Cc1ccc(-c2nc3ccc(-c4ccccc4)cn3c2CN2CCCNCC2)cc1` [Example 9, 4-(3-((1,4-diazepan-1-yl)methyl)-6-phenylimidazo[1,2-a]pyridin-2-yl)benzonitrile], the EC50 was under 500 nM.
